Experimental data from PubChem BioAssay (NCI).
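Results reflect a 48-hour exposure of cells in 96-well plates to compound at five concentrations. At the GI50, growth is halved. TGI: total growth inhibition.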

Legend:
Assay in all cases: NCI anticancer screen, dose series, 48 h
DLD-1 colon = tested on: DLD-1 colon
OVCAR-3 ovarian = tested on: OVCAR-3 ovarian
HCC-2998 colon = tested on: HCC-2998 colon
UO-31 renal = tested on: UO-31 renal
MALME-3M melanoma = tested on: MALME-3M melanoma
HL-60(TB) leukemia = tested on: HL-60(TB) leukemia
LOX IMVI melanoma = tested on: LOX IMVI melanoma
KM12 colon = tested on: KM12 colon
MDA-MB-435 = tested on: MDA-MB-435
KM20L2 colon = tested on: KM20L2 colon

| SMILES | TGI (DLD-1 colon) [µM] | TGI (OVCAR-3 ovarian) [µM] | TGI (HCC-2998 colon) [µM] | TGI (UO-31 renal) [µM] | TGI (MALME-3M melanoma) [µM] | TGI (HL-60(TB) leukemia) [µM] | TGI (LOX IMVI melanoma) [µM] | TGI (KM12 colon) [µM] | TGI (MDA-MB-435) [µM] | TGI (KM20L2 colon) [µM] | GI50 (OVCAR-3 ovarian) [µM] | GI50 (MDA-MB-435) [µM] | GI50 (HCC-2998 colon) [µM] | GI50 (UO-31 renal) [µM] | GI50 (MALME-3M melanoma) [µM] | GI50 (HL-60(TB) leukemia) [µM] | GI50 (LOX IMVI melanoma) [µM] | GI50 (KM12 colon) [µM] | GI50 (KM20L2 colon) [µM] |
| --- | --- | --- | --- | --- | --- | --- | --- | --- | --- | --- | --- | --- | --- | --- | --- | --- | --- | --- | --- |
| Cc1ccc(S(=O)c2ccccc2[N+](=O)[O-])cc1 (stereo unspecified) | > 100 | > 100 | > 100 | > 100 | > 100 | > 100 | > 100 | > 100 |  |  |  |  |  |  |  |  |  |  |  |
| COc1ccc2c(c1)[C@@H](NC(C)=O)CCc1cc(OC)c(OC)c(OC)c1-2 | > 100 | < 0.215 | 13 | > 100 | > 100 | < 0.0142 | > 75.6 | 0.039 | 0.0244 |  |  |  |  |  |  |  |  |  |  |
| NC(N)NCCCc1cn2c(n1)C1CCCN1C(=O)C2Cc1ccccc1 (stereo unspecified) | > 100 | > 100 | > 100 | > 100 | > 100 |  | > 100 | > 100 |  | > 100 |  |  |  |  |  |  |  |  |  |
| CC(C)=CCc1cc2c(cc1O)C1=C(C(=O)C3=C(NCCS3(=O)=O)C1=O)C(C=C(C)C)O2 (stereo unspecified) |  | 10.1 | > 16.7 | > 16.7 | 4.68 | 13.5 | > 16.7 | > 16.7 | 5.6 |  | 2.13 | 2.89 | 9.25 | 5.57 | 1.68 | 4.43 | 4.48 | 7.12 |  |
| Sc1cccc2cccnc12 |  | 8.01 | 16.2 | 11.9 | 14 | 7.21 | 11.1 | 12.1 | 20.5 |  | 0.467 | 2.66 | 3.49 | 0.616 | 1.06 | 1.02 | 0.57 | 0.874 |  |
| COC(=O)[C@@H](C)C[C@H](Cc1ccccc1)NC(=O)c1nc([C@@H](C[C@H](C(C)C)N(C)C(=O)[C@@H](NC(=O)[C@H]2C[C@H](O)CCN2C)C(C)C)OC(C)=O)sc1C(C)C |  |  | 4.52 | > 11.1 | > 11.1 | 0.0074 | > 5.38 | > 3.95 | 0.00288 |  | 0.00148 | < 0.00111 | 0.00353 | 0.504 | 0.00537 | 0.00143 | 0.00437 | 0.00473 |  |
| O=C1NC(=O)C(c2c[nH]c3ccccc23)=C1c1c[nH]c2ccccc12 |  | > 25 | > 25 | > 25 | > 25 | > 25 | > 25 | > 25 | > 25 |  | 17.5 | 6.86 | 16.2 | 3.08 | > 14.7 | 11.1 | 5.31 | 9.3 |  |
| CCN(CC)C(=O)CCn1ccc(=O)[nH]c1=O |  | > 100 |  | > 100 | > 100 | > 100 | > 100 | > 100 |  | > 100 |  |  |  |  |  |  |  |  |  |
| CC(C)=CC[C@@H]1CC2(CC=C(C)C)C(=O)C(OC3(C(=O)c4ccccc4)C(=O)C4(CC=C(C)C)C[C@@H](CC=C(C)C)C(C)(C)C(CC=C(C)C)(C4=O)C3=O)(C(=O)c3ccccc3)C(=O)C(CC=C(C)C)(C2=O)C1(C)C (stereo partly specified) |  | 3.25 | 3.09 | 4.82 | 2.18 | 2.44 | 3.24 | 6.13 | 4.46 |  | 1.24 | 1.41 | 1.21 | 1.28 | 0.901 | 1.06 | 1.23 | 1.65 |  |
| Cn1ncnc1[C@@H]1c2n[nH]c(=O)c3cc(F)cc(c23)N[C@H]1c1ccc(F)cc1 |  | > 100 | > 100 | > 100 | > 100 | > 100 | > 100 | > 100 | > 100 |  | > 100 | > 100 | > 100 | 83.3 | > 100 | > 100 | > 100 | > 100 |  |
| C=C(Br)C(C)(Cl)CCC(Br)C(C)(C)Br (stereo unspecified) | > 100 |  |  | > 100 | > 100 | 54.5 | 50.5 | > 100 |  |  |  |  |  |  |  |  |  |  |  |
| O=C([CH-]C(=O)c1ccccc1)c1ccccc1.O=C([CH-]C(=O)c1ccccc1)c1ccccc1.O=C([CH-]C(=O)c1ccccc1)c1ccccc1.[Ga+3] |  | > 100 |  | > 100 | > 100 | > 100 | > 100 | > 100 |  | > 100 | > 100 |  |  | 30.2 | > 100 | 20.5 | 18 | 91.5 | 59.2 |
| O=C(O)/C=C\C(=O)Nc1ccc2c(c1)-c1ccccc1C2 |  | > 100 | > 100 | > 100 | > 100 | > 100 | > 100 | > 100 | > 100 |  |  |  |  |  |  |  |  |  |  |
| O=C1C=C(Nc2ccccc2)c2ccccc2C1=O |  | 5.27 | 4.62 | 4.48 | 3.07 | 7.83 | 3.17 | 9.17 | 3.7 |  | 1.96 | 1.93 | 2.02 | 1.71 | 1.64 | 2.82 | 1.51 | 2.94 |  |
| Cn1cc(-c2ccc3nc(-c4ccc(CC(=O)Nc5cc(C(C)(C)C)no5)cc4)cnc3c2)cn1 |  | > 3 | > 3 | 0.269 | > 0.694 | > 3 | > 3 | > 3 | > 3 |  | 0.0592 | 0.0505 | > 1.69 | 0.0521 | 0.021 | 0.735 | 0.036 | 0.00173 |  |
| CC(=O)C1(O)CC2(c3ccccc3)C(=O)C1(c1ccccc1)C(c1ccccc1)=C2c1ccccc1 (stereo unspecified) | > 100 | > 100 |  | > 100 | > 100 | > 100 | > 100 | > 100 |  | > 100 |  |  |  |  |  |  |  |  |  |
| CCCCn1c(=O)[nH]c(N)c([C@@H]2c3c([nH]c(=O)n(CCCC)c3=O)Oc3ccc4ccccc4c32)c1=O |  | 2.98 | 3.47 | 2.69 | 7.02 | 6.75 | 2.69 | 3.26 | 3.11 |  | 1.63 | 1.7 | 1.67 | 1.35 | 2.34 | 2.47 | 1.29 | 1.69 |  |
